Where two headings read alike, the source gives them in different places.
Key:
[1] = Stress-induced erosion test of Senay and Levine (anti-ulcer activity); assay type: in vivo; details: Dose 100 mg/kg
Description: Anti-ulcer activity was determined by the stressinduced erosion test of Senay and Levine, Proc. Soc. Exp. Biol. Med., 124, 1221-3 (1967).

H^+ /K^+ ATPase = molecular target: T1, H^+ /K^+ ATPase (Oryctolagus cuniculus, UniProt P27112); assay: Inhibition of 14C-aminopyrine uptake in rabbit isolated gastric glands stimulated by DBcAMP or high K+ (H+/K+ ATPase inhibition); assay type: cell-based; details: compound at 10^-4 M, % inhibition of maximum response
T1 construct: Rabbit gastric glands are isolated from gastric mucosa; from tissue; host or cells: isolated gastric glands from gastric mucosa of the corpus region of rabbit stomach
Description: Compounds of formula I were also tested for anti-secretory activity by their ability to inhibit the highly specific proton transporting enzyme H^+ /K^+ ATPase.
Potential H+/K^+ ATPase inhibitors are evaluated by a technique involving the measurement of aminopyrine accumulation in rabbit isolated gastric glands. Amino-pyrine, which is a weak base, accumulates in acid-secreting cells; therefore, uptake of aminopyrine is increased by secretagogues and an inhibitor of acid secretion will reduce the response to one or more secretagogues depending upon its site of action. Compounds which reduce the response to dibutyryl cyclic adenosine monophosphate (DBcAMP) stimulation are assumed to have an intracellular site of action, and those which reduce the response to both DBcAMP and high potassium ion concentration (K^+) are thought to have an intracellular site of action at the secretory surface of the parietal cell, involving the highly specific proton--transporting enzyme, H^+ /K^+ ATPase. The following test procedure is used:
Rabbit gastric glands are isolated from gastric mucosa from the corpus region of the stomach by a method based on one described by Berglindh T., Obrink K. J., Acta Physiol. Scand. 96, 150-159 (1976). Measurement of aminopyrine uptake is carried out using a modification of the method described by Berglindh T., Hellander H. F., Obrink K. J. (ibid, 97, 401-414, 1976).
Compounds are tested at a concentration of 10^-4 M, initially, and in some cases at lower concentrations, for their ability to inhibit ^14 C-aminopyrine uptake in gastric glands, stimulated by DBcAMP and high K^+ respectively. Results are expressed as the % inhibition of the maximum response to the secretagogue induced by the test compound. An inhibitor of H^+ /K^+ ATPase would be expected to reduce the response to both secretagogues.

[2] = DBcAMP stimulation, read-out: % Inhibition to Stimulation by DBcAMP at 10^-4
[3] = high K+ stimulation, read-out: % Inhibition to Stimulation by K^+ at 10^-4

T1 sequence (P27112 whole entry): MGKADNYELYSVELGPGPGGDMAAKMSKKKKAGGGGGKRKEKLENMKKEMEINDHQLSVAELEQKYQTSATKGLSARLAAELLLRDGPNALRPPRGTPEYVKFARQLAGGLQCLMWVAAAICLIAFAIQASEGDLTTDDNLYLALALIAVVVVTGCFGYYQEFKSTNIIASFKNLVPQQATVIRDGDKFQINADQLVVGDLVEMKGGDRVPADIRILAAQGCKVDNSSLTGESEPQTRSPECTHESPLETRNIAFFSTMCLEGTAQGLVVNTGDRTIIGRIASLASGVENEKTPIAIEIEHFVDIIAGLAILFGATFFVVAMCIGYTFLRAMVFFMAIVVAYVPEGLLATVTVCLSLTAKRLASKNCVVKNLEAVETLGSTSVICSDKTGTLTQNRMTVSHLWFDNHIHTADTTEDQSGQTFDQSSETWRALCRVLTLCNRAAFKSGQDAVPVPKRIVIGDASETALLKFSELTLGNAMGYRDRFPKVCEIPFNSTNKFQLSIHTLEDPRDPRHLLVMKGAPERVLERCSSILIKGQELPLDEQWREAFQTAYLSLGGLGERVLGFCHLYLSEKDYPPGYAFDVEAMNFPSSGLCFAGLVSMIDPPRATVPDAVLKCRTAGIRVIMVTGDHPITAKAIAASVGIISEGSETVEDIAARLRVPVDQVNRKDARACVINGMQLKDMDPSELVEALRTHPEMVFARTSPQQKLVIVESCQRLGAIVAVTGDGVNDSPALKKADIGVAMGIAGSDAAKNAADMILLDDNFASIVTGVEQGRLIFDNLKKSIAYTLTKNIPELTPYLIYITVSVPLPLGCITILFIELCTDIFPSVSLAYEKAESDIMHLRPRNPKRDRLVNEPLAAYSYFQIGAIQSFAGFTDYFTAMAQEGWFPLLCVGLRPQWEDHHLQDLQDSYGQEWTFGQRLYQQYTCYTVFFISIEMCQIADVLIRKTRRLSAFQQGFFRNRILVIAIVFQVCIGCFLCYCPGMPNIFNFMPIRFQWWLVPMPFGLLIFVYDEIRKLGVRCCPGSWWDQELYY
T1 sequence (P18597 whole entry partner): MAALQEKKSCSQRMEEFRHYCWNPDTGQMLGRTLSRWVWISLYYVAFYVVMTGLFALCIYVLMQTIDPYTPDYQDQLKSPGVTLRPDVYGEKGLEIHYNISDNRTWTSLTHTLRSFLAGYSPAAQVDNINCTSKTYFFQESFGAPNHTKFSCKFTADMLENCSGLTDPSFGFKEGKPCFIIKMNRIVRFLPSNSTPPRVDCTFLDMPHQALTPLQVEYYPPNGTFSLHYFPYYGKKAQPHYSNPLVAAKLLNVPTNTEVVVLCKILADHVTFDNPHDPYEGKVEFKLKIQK

| inhibition at 100 µM (H^+ /K^+ ATPase; [2]) [%] | inhibition at 100 µM (H^+ /K^+ ATPase; [3]) [%] | SMILES | Stress Induced Erosion (Senay & Levine) % Inhibition [1] [%] |
| --- | --- | --- | --- |
| 70 | 111 | c1ccc(CSc2nc3cccc4c3n2CCC4)cc1 [Example 1, 2-Benzylthio-5,6,-dihydro-[4H]-imidazo [4,5,1-ij]-quinoline] | 83 |
| 69 | 54 | Clc1cccc(CSc2nc3cccc4c3n2CCC4)c1 [Example 2, 2-(3-Chlorobenzylthio)-5,6,-dihydro-[4H]-imidazo[4,5,1,-ij]quinoline] | – |
| 6.7 | 76 | Fc1ccc(CSc2nc3cccc4c3n2CCC4)cc1 [Example 3, 5,6-Dihydro-2-(4-fluorophenylmethylthio)-[4H]-imidazo-[4,5,1,-ij]quinoline] | 62 |
| 32.9 | 83.5 | Clc1ccccc1CSc1nc2cccc3c2n1CCC3 [Example 4, 2-(2-Chlorophenylmethylthio)-5,6-dihydro-[4H]-imidazo-[4,5,1-ij]quinoline] | 55 |
| 53 | 109 | Clc1ccc(CSc2nc3cccc4c3n2CCC4)cc1 [Example 5, 2-(4-Chlorophenylmethylthio)-5,6-dihydro-[4H]-imidazo-[4,5,1-ij]quinoline] | – |
| 40.6 | 93 | Fc1ccccc1CSc1nc2cccc3c2n1CCC3 [Example 6, 5,6-Dihydro-2-(2-fluorophenylmethylthio)-[4H]-imidazo-[4,5,1-ij]quinoline] | – |
| 40 | 63 | C1=Cc2cccc3nc(SCc4ccccc4)n(c23)C1 [Example 7, 2-Benzylthio-[4H]-imidazo[4,5,1-ij]quinoline] | 54 |

Source: patent US4609655A, “Anti-ulcer imidazo-quinoline, indole and benzazepine derivatives” (John Wyeth & Brother, Ltd., priority 1983, dated 1986)
